The test system of data set [1] is conscious Sprague-Dawley rats. Description: Positive inotropic challenge (dobutamine, levosimendan) after supra-therapeutic mavacamten, echocardiography. It is filed as in vivo, rat. The following applies: healthy rats exposed to a supra-therapeutic dose of mavacamten. Here is the method:
Methods: The responsiveness of mavacamten-induced cardio-depression to positive inotropic challenges was assessed in a set of conscious Sprague-Dawley rats. In these animals, functional reserve was assessed via either dobutamine (+DOB, 10 μg/kg/min IV for 10 min, n=7) or levosimendan (+LEVO, 0.3 μmol/kg IV over […]; n=6) challenges given 3 hrs following a single-dose administration of MAVA (at 4 mg/kg, PO). Cardiac function/geometry were recorded and compared at three separate time-points/days: prior to dosing (i.e., at baseline) and at 3 hrs post-dosing both before as well as during the inotropic challenge; in order to account for the levosimendan-induced changes in loading conditions, an additional echocardiographic examination was performed following acute preload-restoration in LEVO-treated rats (+LEVO/F, 0.9% NaCl at 30 mL/kg/hr IV).
In these experiments, left-ventricular fractional shortening (FS), an index of systolic performance, as well as LV dimensions/volumes and heart rates were measured using a high-frequency transducer and parasternal long-axis transthoracic views (Vevo2100, VisualSonic). FS was defined as the end-diastole normalized change in internal dimensions/diameter of the left ventricle between end-systole (LVESd) and end-diastole (LVEDd) (i.e., FS=100·[LVEDd−LVESd]/LVEDd). LV volumes were derived assuming a Teichholz model (LVV=7·[2.4+LVid]−1·LVid3).

Data set [2] relates to Yucatan mini-pigs with a heterozygous MYH7 R403Q mutation. As to the kind of experiment: Chronic MYK-581 in mini-pig genetic model of non-obstructed HCM (cMR imaging, invasive hemodynamics, dobutamine challenge). It is filed as in vivo. On the procedure:
The mini-pigs were treated for at least 12 weeks and were evaluated as shown in Schematic 1 below. […] After ~14 weeks of treatment, all pigs underwent in vivo cMR imaging for the assessment of LV function and geometry, as well as of myocardial composition via of Late Gadolinium Enhancement (LGE) and T1 mapping techniques including extracellular volume (ECV) assessments. In addition, a subset of animals (MYK: n=6, CTRL: n=5) also underwent terminal invasive hemodynamics assessments, including cardiac output (CO, via thermodilution), load-independent systolic/diastolic function (via LV pressure-volume relationships), and β-adrenergic (β-AR) cardiac reserve (via dobutamine at 5 μg/kg/min IV).
The mini-pig model can be obtained following the method disclosed in a presentation entitled “A Minipig Genetic Model of Hypertrophic Cardiomyopathy Uncovers the Pathophysiological Mechanisms of Disease Evolution”, by E. Green et al., at University of Iowa, Carver College of Medicine.

The nature of data set [3]: Solubility estimates at ambient temperature. It is filed as physicochemical. The following applies: for solubility: organic solvent or mixture, thermodynamic from solid, read-out: solubility estimate. On the procedure: Solubilities were calculated based on the total solvent used to give a solution; actual solubilities may be greater because of the volume of solvent portions utilized or a slow rate of dissolution. […] If dissolution occurred at the first aliquot, the value was reported as “>”.
Solubility estimates at ambient temperature were performed in 25 solvents and solvent systems using Form A (Lot 2-4) (Table 13.3).

Where two headings read alike, the source gives them in different places.

The values below come from US20260207600A1, “METHODS OF TREATMENT WITH MYOSIN MODULATOR” (MYOKARDIA, INC., priority 2019, published 2026).

Regarding `CC(CCc1ccc(O)cc1)NCCc1ccc(O)c(O)c1` (stereo not drawn) [dobutamine], the “echocardiography-derived indices of systolic function after supra-therapeutic mavacamten” value in data set [1] is given as “successfully rescued/restored”.

For the compound `C[C@@H]1CC(=O)NN=C1c1ccc(NN=C(C#N)C#N)cc1` [levosimendan], the “echocardiography-derived indices of systolic function after supra-therapeutic mavacamten” value in data set [1] is on record as “successfully rescued/restored”.

In data set [2] (control 3.5±0.3), `CC(C)n1c(=O)cc(N[C@@H](C)c2cccc(F)c2)[nH]c1=O` [MYK-581, (S)-6-((1-(3-fluorophenyl)ethyl)amino)-3-isopropylpyrimidine-2,4 (1H,3H)-dione] showed an LV stiffness of 1.3±0.2 mmHg/mL. This compound also had an LV end-diastolic pressures in data set [2] (control 23±4) of 9±1 mmHg. This compound also had a left-atrial volumes in data set [2] (control 29±4) of 16 ± 1 mL. For the same compound, the ECV in data set [2] (control 32±2) is given as 27±1%. The compound further registered an LV mass in data set [2] (control 66±5) of 51 ± 4 g. Further, in data set [2] (control 71±5), the time-constants of relaxation worked out at 45 ± 3 ms. Besides, the “CO increase under β-AR challenge” value in data set [2] (dobutamine challenge, control +26±2) was “+60±8%”. Further, in data set [2] (dobutamine challenge, control −14±6), the β-AR stroke-volume recruitment result was “+15±4%”. In data set [2] (end of the study (~5 months), CTRL 40%), the mortality – broadly, the percentage killed – is listed as 0%. Further, in data set [2] (~14 weeks of treatment, cMR, control 65±2), the EF is 59±2%.

Regarding `CC(C)n1c(=O)cc(N[C@@H](C)c2ccccc2)[nH]c1=O` [Form A, (S)-3-isopropyl-6-((1-phenylethyl)amino)-pyrimidine-2,4 (1H,3H)-dione], the solubility estimate entry in data set [3] (methanol, THF, THF/water (90/10, vol/vol) and DMSO/water (90/10, vol/vol)) is “limited solubility”. In addition, the solubility (commonly how much of the substance goes into solution per volume) is no less than 20 mg/mL in data set [3] (HFIPA and various mixtures with DMSO, NMP and DMF); no more than 1 mg/mL in data set [3] (anisole, isopropanol, MIBK, nitromethane, and toluene).
